From paper PMC3776131 (Bioorganic & medicinal chemistry letters, 2013)
Read-outs that look alike come from different tables or passages of the source. Where a SMILES comes first, the peptide text is derived from it. [ ]: non-standard residue; d: D form. Dmt = Cc1cc(O)cc(C)c1C[C@H](N)C(=O)O; Tic = O=C(O)[C@@H]1Cc2ccccc2CN1

Legend:
δ receptor [1] = target: T1, δ receptor (Mus musculus, UniProt P32300); experiment: mouse vas deferens
μ and κ receptor [2] = experiment: guinea pig ileum
μ opioid receptors [3] = target: T2, μ opioid receptors (Rattus norvegicus, UniProt P33535); experiment: μ opioid receptor binding, displacement of [3H]DAMGO from rat brain membranes; settings: relative to 4a
T2 sequence (P33535 whole entry): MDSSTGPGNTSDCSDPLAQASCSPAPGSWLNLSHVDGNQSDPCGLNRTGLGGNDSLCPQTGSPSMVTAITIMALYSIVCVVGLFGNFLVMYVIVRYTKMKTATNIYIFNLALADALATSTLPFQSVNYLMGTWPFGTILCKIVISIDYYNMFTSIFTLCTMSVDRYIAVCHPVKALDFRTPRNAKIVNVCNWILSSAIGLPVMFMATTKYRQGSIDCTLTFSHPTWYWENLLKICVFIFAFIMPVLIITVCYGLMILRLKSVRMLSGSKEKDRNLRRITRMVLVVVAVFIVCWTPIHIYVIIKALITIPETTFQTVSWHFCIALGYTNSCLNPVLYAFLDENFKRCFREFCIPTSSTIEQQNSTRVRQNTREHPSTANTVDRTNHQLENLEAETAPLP

[4] = given i.c.v.; cited from earlier work
δ receptor [5] = target: T1, δ receptor; settings: cited from earlier work
μ and κ receptor [6] = settings: cited from earlier work
[7] = cited from earlier work
κ opioid receptor = κ opioid receptor (Cavia porcellus, UniProt P41144); settings: read-out: Ki^κ; [3H]U69,593, guinea pig brain membranes; cited from earlier work
Chain of κ opioid receptor (P41144 whole entry): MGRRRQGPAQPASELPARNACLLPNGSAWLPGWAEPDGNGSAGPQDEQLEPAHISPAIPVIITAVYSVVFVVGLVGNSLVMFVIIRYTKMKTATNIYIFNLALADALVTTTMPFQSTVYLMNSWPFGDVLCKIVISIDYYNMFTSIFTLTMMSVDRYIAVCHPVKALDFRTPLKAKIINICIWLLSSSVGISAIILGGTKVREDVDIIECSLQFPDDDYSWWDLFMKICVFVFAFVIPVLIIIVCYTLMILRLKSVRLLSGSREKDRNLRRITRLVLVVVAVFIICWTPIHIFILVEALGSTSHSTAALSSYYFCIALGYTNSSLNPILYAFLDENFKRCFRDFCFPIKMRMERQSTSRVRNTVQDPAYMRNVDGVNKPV

μ opioid receptors [8] = target: T2, μ opioid receptors; settings: read-out: Ki^μ; [3H]DAMGO, rat brain membranes; cited from earlier work

T1 sequence (P32300 whole entry): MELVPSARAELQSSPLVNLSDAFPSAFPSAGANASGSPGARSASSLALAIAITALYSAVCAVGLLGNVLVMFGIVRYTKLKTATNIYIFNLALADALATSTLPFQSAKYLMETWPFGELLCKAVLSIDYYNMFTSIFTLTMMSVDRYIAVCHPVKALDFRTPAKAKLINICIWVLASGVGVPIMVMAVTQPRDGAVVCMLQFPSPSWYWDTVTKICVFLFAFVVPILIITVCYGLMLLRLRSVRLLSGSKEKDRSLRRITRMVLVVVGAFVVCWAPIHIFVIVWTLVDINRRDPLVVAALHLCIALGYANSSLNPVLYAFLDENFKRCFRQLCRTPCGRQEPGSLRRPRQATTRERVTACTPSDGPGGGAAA

Molecule	MVD Ke (δ antagonist activity) (δ receptor [5])	type of activity in the MVD assay (δ receptor [5])	GPI IC50 (agonist potency) (μ and κ receptor [6])	further results
Cc1cc(O)cc(C)c1C[C@H](N)C(=O)N1Cc2ccccc2C[C@H]1C(=O)N[C@@H](CCCCN)C(=O)N[C@@H](Cc1ccccc1)C(N)=O [Compound 6a, H-Dmt-Tic-Lys-Phe-NH2] (HELM PEPTIDE1{[Cc1cc(O)cc(C)c1C[C@H](N)C(=O)[*:2]].[Tic].K.F.[am]}$$$$V2.0)				Kb (δ receptor [1]): 2.18 ± 0.3 nM; type of activity in the MVD assay (δ receptor [1]): δ antagonist; type of activity in the GPI assay (μ and κ receptor [2]): μ agonist; fold lower μ receptor affinity than 4a (μ opioid receptors [3]): 16 fold
H-Dmt-Ticψ[CH2NH]Phe-Phe-NH2 [Compound 5a]	0.537 ± 0.026 nM			analgesic effect in the rat tail flick test [4]: potent analgesic effect; IC50 (μ and κ receptor [6]; read-out: GPI IC50 (agonist potency)): 7.71 ± 0.31 nM; physical dependence upon chronic administration [7]: no physical dependence; analgesic tolerance upon chronic administration ([7]; compared with morphine): less analgesic tolerance than morphine
H-Tyr-Ticψ[CH2NH]Phe-Phe-OH [Compound 3a]		potent δ antagonists	inactive	
H-Y[Tic]FF-OH [Compound 1a]		potent δ antagonists	inactive	
H-[Dmt]-[Tic]-OH [Compound 8a]			Inactive	Ki (κ opioid receptor): > 1000 nM; Ki (μ opioid receptors [8]): 1360 ± 160 nM
H-[Dmt][Tic]FF-NH2 [Compound 4a]	0.209 ± 0.037 nM			
H-[Dmt][Tic]FF-OH [Compound 2a]	0.196 ± 0.008 nM	potent δ antagonists	inactive	
